The star is where a group is joined. AMC = Cc1cc(=O)oc2cc(N*)ccc12; Tos = Cc1ccc(S(=O)(=O)*)cc1
The molecules below were run on human lung tryptase (assay: Screening of tryptase substrates: responsiveness of fluorescent MCA substrates to tryptase). Conditions: relative value with the sensitivity of ^iBoc-Ala-Ala-Arg-MCA defined as 100; 100 μM substrate, 50 mM Tris-HCl pH 8.0, ex 365 nm / em 470 nm.
Assay type: biochemical
Procedure: In addition to reference to past documents as described above, ^iBoc-Y-X-Arg-MCA in which Gly, Ala, Abu, Val, Pro, Phe or hydrophilic Lys having distinctive bulkiness was introduced to positions P2 and P3 was synthesized as listed in Table 1 by a peptide library approach, and activity measurement was performed. Abu (2-aminobutyric acid) is a non-protein amino acid, but was added as an optimum peptide sequence search tool.
The activity measurement was performed by the following method.
(1) A stock of a substrate solution was provided as a 2.0 mM solution in DMSO. (2) The stock of the substrate solution was diluted 20-fold with 50 mM Tris-HCl (pH 8.0) to prepare a 100 μM solution. 100 μL thereof was added to a polypropylene microtube, further 2 μL of a commercially available tryptase solution (manufactured by Cappel Laboratories, Inc.) was added thereto, and the tube was lightly vortexed for mixing. Immediately thereafter, change in fluorescence intensity at 470 nm was measured at an excitation wavelength of 365 nm using an enzyme activity measurement apparatus (manufactured by Peptide Support Ltd., prototype).

Tryptase activity	Molecule
0	Cc1cc(=O)oc2cc(NC(=O)C(CCCNC(=N)N)NC(=O)OCC(C)C)ccc12 (stereo not drawn) [^iBoc-Arg-MCA]
25	Tos-Gly-Pro-Arg-{AMC} [reference compound]
69	^iBoc-Abu-Abu-Arg-MCA
109	^iBoc-Abu-Ala-Arg-MCA
80	^iBoc-Ala-Abu-Arg-MCA
100	^iBoc-Ala-Ala-Arg-MCA
11	^iBoc-Ala-Lys-Arg-MCA
1	^iBoc-Ala-Phe-Arg-MCA
50	^iBoc-Ala-Val-Arg-MCA
0	^iBoc-Gly-Gly-Arg-MCA
9	^iBoc-Gly-Pro-Arg-MCA
167	^iBoc-Lys-Ala-Arg-MCA
75	^iBoc-Lys-Gly-Arg-MCA
175	^iBoc-Lys-Pro-Arg-MCA
62	^iBoc-Phe-Ala-Arg-MCA
5	^iBoc-Phe-Gly-Arg-MCA
11	^iBoc-Phe-Ser-Arg-MCA
53	^iBoc-Val-Ala-Arg-MCA
20	^iBoc-Val-Pro-Arg-MCA

Same assay, conditions: screening of Table 1

Molecule	tryptase responsiveness compared with ^iBoc-Ala-Ala-Arg-MCA (in words)
^iBoc-Abu-Ala-Arg-MCA	higher tryptase responsiveness than that of ^iBoc-Ala-Ala-Arg-MCA
^iBoc-Lys-Ala-Arg-MCA	higher tryptase responsiveness than that of ^iBoc-Ala-Ala-Arg-MCA
^iBoc-Lys-Pro-Arg-MCA	tryptase responsiveness slightly less than two times higher than that of ^iBoc-Ala-Ala-Arg-MCA

What follows are molecules tested on Tryptase in Serum (assay: Human serum enzyme activity with Suc-Ala-Ala-Arg-MCA-linked poly(L-lysine) substrate after addition of inhibitors). Conditions: human serum; Suc-Ala-Ala-Arg-MCA-linked poly(L-lysine) substrate.
Assay type: biochemical
Procedure: Suc-Ala-Ala-Arg-MCA-linked poly(L-lysine) prepared in Example 2 was used to test whether to be able to specifically measure tryptase activity in serum.
(1) 20.0 mg of Suc-Ala-Ala-Arg-MCA-linked poly(L-lysine) was dissolved in 50 mL of 50 mM Tris-HCl (pH 8.0). (2) 2 μL of commercially available human serum (manufactured by BioWest) was mixed with 2 μL of PBS(−) (pH 7.4) (control) or 2 μL of 10 μM nafamostat (tryptase inhibitor, manufactured by Tokyo Chemical Industry Co., Ltd.) or 2 μL of 10 U/mL hirudin (thrombin inhibitor, manufactured by Sigma-Aldrich Co., LLC). After a lapse of 10 minutes at room temperature, each mixed solution was added to 100 μL of the solution prepared in the step (1). Immediately thereafter, enzyme activity was measured.

inhibition of enzyme activity in serum detected with the macromolecular substrate (in words)	Molecule
completely inhibited	N=C(N)c1ccc2cc(OC(=O)c3ccc(N=C(N)N)cc3)ccc2c1 [nafamostat]

Same assay, conditions: relative value with serum + PBS(-) defined as 100; human serum preincubated 10 min with 2 μL of 10 μM nafamostat or 10 U/mL hirudin; substrate Suc-Ala-Ala-Arg-MCA-linked poly(L-lysine)

Molecule	Enzyme activity
N=C(N)c1ccc2cc(OC(=O)c3ccc(N=C(N)N)cc3)ccc2c1 [nafamostat]	0
hirudin	83
